Data taken from patent US7772177B2, “BIR domain binding compounds” (Aegera Therapeutics, Inc., priority 2005, dated 2010).

Experiments:
GST-HIAP2 (cIAP-1) BIR 3 = target: T1, GST-HIAP2 (cIAP-1) BIR 3 (Homo sapiens, UniProt Q13490); assay: Fluorescence polarization-based competition assay, cIAP-1 Bir3; assay type: binding
T1 construct: made in house; host or cells: E. coli DH5-alpha
Description: GST-HIAP2 (cIAP-1) BIR 3: HIAP2 coding sequence from amino acids 251-363 cloned into PGex4T3 via BamH1 and XhoI. The plasmid was transformed into E. coli DH5α for use in protein expression and purification.
(§1) A fluorescent peptide probe, Fmoc-Ala-Val-Pro-Phe-Tyr(t-Bu)-Leu-Pro-Gly(t-Bu)-Gly-OH was prepared using standard Fmoc chemistry on 2-chlorotrityl chloride resin (Int. J. Pept. Prot. Res. 38:555-561, 1991). Cleavage from the resin was performed using 20% acetic acid in dichloromethane (DCM), which left the side chain still blocked. The C-terminal protected carboxylic acid was coupled to 4′-(aminomethyl)fluorescein (Molecular Probes, A-1351; Eugene, Oreg.) using excess diisopropylcarbodiimide (DIC) in dimethylformamide (DMF) at room temperature and was purified by silica gel chromatography (10% methanol in DCM). The N-terminal Fmoc protecting group was removed using piperidine (20%) in DMF, and purified by silica gel chromatography (20% methanol in DCM, 0.5% HOAc). Finally, the t-butyl side chain protective groups were removed using 95% trifluoroacetic acid containing 2.5% water and 2.5% triisopropyl silane. […] Compound #174 was also used as a fluorescent probe in this assay.
(§2) For all assays, the fluorescence and fluorescence-polarization was evaluated using a Tecan Polarion instrument with the excitation filter set at 485 nm and the emission filter set at 535 nm. For each assay, the concentration of the target protein was first establish by titration of the selected protein in order to produce a linear dose-response signal when incubated alone in the presence of the fluorescent probe. Upon establishing these conditions, the compounds potency (IC50) and selectivity, was assessed in the presence of a fix defined-amount of target protein and fluorescent probe and a 10 point serial dilution of the selected compounds. For each IC50 curve, the assays were run as followed: 25 ul/well of diluted compound in 50 mM MES buffer pH 6.5 were added into a black 96 well plate then 25 ul/well of bovine serum albumin (BSA) at 0.5 mg/ml in 50 mM MES pH 6.5. Auto-fluorescence for each compound was first assessed by performing a reading of the compound/BSA solution alone. Then 25 ul of the fluorescein probe diluted into 50 mM MES containing 0.05 mg/ml BSA were added and a reading to detect quenching of fluorescein signal done. Finally 25 ul/well of the target or control protein (GST-BIRs) diluted at the appropriate concentration in 50 mM MES containing 0.05 mg/ml BSA were added and the fluorescence polarization evaluated.
(§3) For each assay the relative polarization-fluorescence units were plotted against the final concentrations of compound and the IC50 calculated using the Grad pad prism software and/or Cambridge soft. The ki value were derived from the calculated IC50 value as described above and according to the equation described in Nikolovska-Coleska, Z. (2004) Anal Biochem 332, 261-273.
(§4) Compounds exemplified in Table 6 were tested and found to have IC50s in the following ranges: A: >10 μM; B: <10 μM; C: <1 μM using the fluorescence polarization assay, as shown in Table 5. Each of the IC50s was calculated from Graph Pad.

GST-XIAP BIR3RING = target: T2, GST-XIAP BIR3RING (Homo sapiens, UniProt P98170); assay: Fluorescence polarization-based competition assay, XIAP Bir3-RING; assay type: binding
T2 construct: made in house; host or cells: E. coli DH5-alpha
T2 sequence (P98170 246-497): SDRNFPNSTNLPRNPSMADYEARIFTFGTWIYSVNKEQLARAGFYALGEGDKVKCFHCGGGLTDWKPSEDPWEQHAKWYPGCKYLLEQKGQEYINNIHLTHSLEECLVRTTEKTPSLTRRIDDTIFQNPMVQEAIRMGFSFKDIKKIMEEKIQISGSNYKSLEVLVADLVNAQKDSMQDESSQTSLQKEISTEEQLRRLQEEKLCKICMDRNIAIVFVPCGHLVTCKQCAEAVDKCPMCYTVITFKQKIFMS
Description: GST-XIAP BIR3RING: XIAP coding sequence amino acids 246-497 cloned into PGEX2T1 via BamH1 and AVA I. The plasmid was transformed into E. coli DH5α for use in protein expression and purification.
as §1, §2, §3, §4

[1] = target: T3, XIAP Bir3-RING (GST-BIR 3RING) (Homo sapiens, UniProt P98170); assay: Caspase de-repression assay using cellular extracts (apoptosome), XIAP Bir3-RING; assay type: biochemical; settings: 293 cell S100 extract
T3 construct: made in house; host or cells: E. coli DH5-alpha
T3 sequence (P98170 246-497): as above
Description: (§5) 100 ug of 293 cell S100 extract and 0.25 uM-2 uM of GST-Xiap fusion protein (GST-BIR 3RING, GST-linker BIR2 BIR3RING) were co-incubated with serial dilutions of compound (0.02 uM-40 uM). Extracts were activated by adding 1 mM dATP, 0.1 mM ALLN, 133 ug Cytochrome C (final concentrations), and incubating at 37° C. for 25 minutes. All reactions and dilutions used S100 buffer (50 mM Pipes pH 7.0, 50 mM KCl, 0.5 mM EGTA pH 8.0, 2 mM MgCl2 supplemented with 1/1000 dilutions of 2 mg/ml Cytochalisin B, 2, mg/ml Chymotstatin, Leupeptin, Pepstatin, Antipain, 0.1M PMSF, 1M DTT). Final reaction volume was 30 ul. Caspase-3 activity was measured by overlaying 30 ul of a 0.4 mM DEVD-AMC solution. AMC cleavage was measured in a TECAN spectrophotometer at 360 nm excitation and 444 nm emission, on a kinetic cycle of 1 hour with readings taken every 5 minutes. Caspase activity was calculated as Vo of AMC fluorescence/sec. Caspase de-repression by our compounds were compared to fully activated extract and activated extract repressed by the presence of XIAP fusion protein.
(§6) Results: Compounds were also tested in the apoptosome assay and the linker-BIR2/caspase-3 inhibition assay and found to have IC50s in the following ranges: A: >10 μM; B: <10 μM; C: <1 μM, as shown in Table 7.

[2] = target: T4, XIAP Bir2-Bir3-RING (GST-linker BIR2 BIR3RING) (Homo sapiens, UniProt P98170); assay: Caspase de-repression assay using cellular extracts (apoptosome), XIAP Bir2-Bir3-RING; assay type: biochemical; settings: 293 cell S100 extract
T4 construct: made in house; host or cells: E. coli DH5-alpha
T4 sequence (P98170 93-497): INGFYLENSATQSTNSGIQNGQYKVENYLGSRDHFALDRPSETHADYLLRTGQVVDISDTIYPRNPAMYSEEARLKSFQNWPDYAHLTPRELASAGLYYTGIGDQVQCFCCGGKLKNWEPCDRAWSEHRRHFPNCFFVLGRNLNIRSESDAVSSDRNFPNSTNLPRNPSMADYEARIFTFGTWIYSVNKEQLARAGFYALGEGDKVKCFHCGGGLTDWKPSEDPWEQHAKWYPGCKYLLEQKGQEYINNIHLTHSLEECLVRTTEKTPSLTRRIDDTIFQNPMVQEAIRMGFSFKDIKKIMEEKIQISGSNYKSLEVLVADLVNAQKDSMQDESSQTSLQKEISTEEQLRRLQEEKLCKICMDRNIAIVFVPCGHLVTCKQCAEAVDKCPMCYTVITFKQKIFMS
Description: as §5, §6

GST-HIAP1(cIAP-2) BIR 3 = target: T5, GST-HIAP1(cIAP-2) BIR 3 (Homo sapiens, UniProt Q13489); assay: Fluorescence polarization-based competition assay, cIAP-2 Bir3; assay type: binding
T5 construct: made in house; host or cells: E. coli DH5-alpha
T5 sequence (Q13489 236-349): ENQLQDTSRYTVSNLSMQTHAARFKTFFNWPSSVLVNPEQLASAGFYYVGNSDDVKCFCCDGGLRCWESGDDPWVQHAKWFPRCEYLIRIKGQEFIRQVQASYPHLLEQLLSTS
Description: GST-HIAP1(cIAP-2) BIR 3: HIAP1 coding sequence from amino acids 236-349, cloned into PGex4T3 via BamH1 and XhoI. The plasmid was transformed into E. coli DH5α for use in protein expression and purification.
as §1, §2, §3, §4

[3] = target: T6, caspase-3 inhibited by linker BIR2-BIR3-RING of XIAP (Homo sapiens, UniProt P98170); assay: Caspase-3 linker-BIR2-BIR3-RING derepression assay; assay type: biochemical
T6 construct: made in house; host or cells: E. coli DH5-alpha (GST-XIAP); E. coli AD494 (His-caspase-3)
T6 sequence (P98170 93-497): as the sequence (P98170 93-497) above
Description: In order to determine the relative activity of the selected compound against BIR2, an in vitro assay was used where caspase-3 was inhibited by linker-BIR2 or linker BIR2-BIR3-RING of XIAP. Briefly, 1.5 ul of the enzyme, 0.25 uM to 2 uM of GST-Xiap fusion protein (GST-linker BIR2, GST-linker BIR2BIR3RING) were co-incubated with serial dilutions of compound (80 uM-0.04 uM). Caspase 3 activity was measured by overlaying 25 ul of a 0.4 mM DEVD-AMC solution. Final reaction volume was 100 ul. All dilutions were performed in caspase buffer (50 mM Hepes pH 7.4, 100 mM NaCl, 10% sucrose, 1 mM EDTA, 10 mM DTT, 0.1% CHAPS (Stennicke, H. R., and Salvesen, G. S. (1997). Biochemical characteristics of caspase-3, -6, -7, and -8. J. Biol. Chem. 272, 25719-25723)).
The fluorescent AMC released from the caspase-3 hydrolysis of the substrate was measured in a TECAN spectrophotometer at 360 nm excitation and 444 nm emission, on a kinetic cycle of 30 minutes with readings taken every 2 minutes. Caspase activity was calculated as Vo of AMC fluorescence/sec. Caspase de-repression by our compounds were compared to caspase-3 alone and caspase 3 repressed by the presence of XIAP fusion protein.
as §6

T1 sequence (Q13490 251-363): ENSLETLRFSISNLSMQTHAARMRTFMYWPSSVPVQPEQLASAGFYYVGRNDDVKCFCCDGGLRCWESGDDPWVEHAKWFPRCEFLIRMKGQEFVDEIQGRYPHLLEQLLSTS

SMILES | IC50 (GST-HIAP2 (cIAP-1) BIR 3) | IC50 (GST-XIAP BIR3RING) | IC50 [1] | IC50 [2] | IC50 (GST-HIAP1(cIAP-2) BIR 3) | IC50 [3]
CC(C)[C@H](NC(=O)[C@H](C)N)C(=O)N1CCC[C@H]1CN(C(=O)C(F)(F)F)[C@H]1CCCc2ccccc21 [Compound 4] | < 10000 nM | < 10000 nM | > 10000 nM | > 10000 nM | < 10000 nM | > 10000 nM
CC[C@H](N)C(=O)N[C@H](C(=O)N1CCC[C@H]1CN(CCc1ccccc1)C(C)=O)C(C)C [Compound 5] | < 1000 nM | < 10000 nM | < 1000 nM | > 10000 nM | < 1000 nM | < 10000 nM
CC[C@H](N)C(=O)N[C@H](C(=O)N1CCC[C@H]1CN(C(C)=O)[C@H](C)c1ccccc1)C(C)C [Compound 7] | – | > 10000 nM | < 1000 nM | – | – | > 10000 nM
CC(=O)N(CCCc1ccccc1)C[C@@H]1CCCN1C(=O)[C@@H](NC(=O)[C@H](C)N)C(C)C [Compound 11] | < 10000 nM | < 10000 nM | < 1000 nM | – | < 10000 nM | –
COCC(=O)N(CCc1ccccc1)C[C@@H]1CCCN1C(=O)[C@@H](NC(=O)[C@H](C)N)C(C)C [Compound 25] | < 1000 nM | < 10000 nM | < 1000 nM | – | < 1000 nM | > 10000 nM
CC(C)[C@H](NC(=O)[C@H](C)N)C(=O)N1CCC[C@H]1COCc1ccccc1 [Compound 63] | < 10000 nM | < 10000 nM | – | – | > 10000 nM | –
C[C@H](N)C(=O)N[C@H](C(=O)N1CCC[C@H]1COCc1ccccc1)C(C)(C)C [Compound 64] | < 10000 nM | < 10000 nM | – | – | < 10000 nM | –
CC(C)[C@H](NC(=O)[C@H](C)N)C(=O)N1CCC[C@H]1CSCCc1ccccc1 [Compound 66] | < 10000 nM | < 10000 nM | – | – | < 10000 nM | –
CC(C)[C@H](NC(=O)[C@H](C)N)C(=O)N1CCC[C@H]1CS(=O)(=O)CCc1ccccc1 [Compound 67] | < 10000 nM | > 10000 nM | – | – | < 10000 nM | –

Further lines, results first:

IC50 (GST-HIAP2 (cIAP-1) BIR 3) | IC50 (GST-XIAP BIR3RING) | IC50 [1] | IC50 [2] | IC50 (GST-HIAP1(cIAP-2) BIR 3) | IC50 [3] | SMILES
< 10000 nM | < 10000 nM | > 10000 nM | > 10000 nM | < 10000 nM | – | CC[C@H](N)C(=O)N[C@H](C(=O)N1CCC[C@H]1CNCCc1ccccc1)C(C)C [Compound 2]
< 10000 nM | < 10000 nM | < 1000 nM | > 10000 nM | < 10000 nM | < 10000 nM | CC(C)[C@H](NC(=O)[C@H](C)N)C(=O)N1CCC[C@H]1CN(C(=O)C(F)(F)F)[C@@H]1CCCc2ccccc21 [Compound 3]
< 1000 nM | < 1000 nM | < 1000 nM | – | < 1000 nM | > 10000 nM | CC(C)[C@H](NC(=O)[C@H](C)N)C(=O)N1CCC[C@H]1CN(CCc1ccccc1)C(=O)c1ccccc1 [Compound 24]
< 1000 nM | < 1000 nM | > 10000 nM | – | < 1000 nM | > 10000 nM | CN[C@@H](C)C(=O)N[C@H](C(=O)N1CCC[C@H]1CN(CCc1ccccc1)C(=O)OCc1ccccc1)C(C)(C)C [Compound 26]
< 1000 nM | < 1000 nM | < 1000 nM | – | < 1000 nM | > 10000 nM | CC(C)[C@H](NC(=O)[C@H](C)N)C(=O)N1CCC[C@H]1CN(CCc1ccccc1)C(=O)COc1ccccc1 [Compound 28]
< 1000 nM | < 1000 nM | < 1000 nM | – | < 1000 nM | > 10000 nM | CN[C@@H](C)C(=O)N[C@H](C(=O)N1CCC[C@H]1CN(CCc1ccccc1)C(=O)CN)C(C)(C)C [Compound 32]
< 1000 nM | < 1000 nM | < 1000 nM | – | < 1000 nM | > 10000 nM | CN[C@@H](C)C(=O)N[C@H](C(=O)N1CCC[C@H]1CN(CCc1ccccc1)C(=O)CCN)C(C)(C)C [Compound 33]
< 1000 nM | < 1000 nM | < 1000 nM | – | < 1000 nM | > 10000 nM | CNCC(=O)N(CCc1ccccc1)C[C@@H]1CCCN1C(=O)[C@@H](NC(=O)[C@H](C)NC)C(C)(C)C [Compound 34]
< 1000 nM | < 1000 nM | < 1000 nM | – | < 1000 nM | > 10000 nM | CN[C@@H](C)C(=O)N[C@H](C(=O)N1CCC[C@H]1CN(CCc1ccccc1)C(=O)CCC(=O)O)C(C)(C)C [Compound 35]
< 1000 nM | < 1000 nM | – | – | < 1000 nM | – | C#CCOC[C@H](NC(=O)[C@@H](N)CO)C(=O)N1CCC[C@H]1CN(CCc1ccccc1)C(=O)C(F)(F)F [Compound 61]
< 1000 nM | < 1000 nM | – | – | < 1000 nM | – | CC(C)[C@H](NC(=O)[C@H](C)N)C(=O)N1CCC[C@H]1CN(CCCCOC(=O)c1ccccc1)CCc1ccccc1 [Compound 65]
< 1000 nM | < 1000 nM | – | – | < 1000 nM | – | CN[C@@H](C)C(=O)N[C@H](C(=O)N1CCC[C@H]1CN(CCc1ccccc1)S(=O)(=O)Cc1ccccc1)C(C)(C)C [Compound 68]
< 1000 nM | < 1000 nM | – | – | < 1000 nM | – | CN[C@@H](C)C(=O)N[C@H](C(=O)N1CCC[C@H]1CN(CCc1ccccc1)S(=O)(=O)c1ccccc1)C(C)(C)C [Compound 69]
